Measurements as given in patent US20250195511A1, “INDAZOLE DERIVATIVES USEFUL AS INHIBITORS OF NOD-LIKE RECEPTOR PROTEIN 3” (Merck Sharp & Dohme LLC, priority 2023, published 2025).

Tested on: NLRP3 inflammasome
Assay: NLRP3 inflammasome activation: ASC-SPECK formation in gramicidin-stimulated THP-1 cells
Format: cell-based
Conditions: PMA-treated human monocytic THP-1 cells, compound 1 h before 12.5 μg/ml gramicidin, 3-hour treatment
How it was run: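 Undifferentiated human THP-1 cells primed overnight with 10 ng/ml PMA, then given compounds 1 h before 12.5 μg/ml gramicidin for 3 h at 37° C in RPMI with 0.01% BSA. Fixed cells immunostained for ASC with DRAQ5 nuclear counterstain; DRAQ5-positive cells with ASC specks counted by high-content imaging; EC50 from curve fitting.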

[1] = inhibition of ASC SPECK formation
[2] = Homo sapiens, THP-1, inhibition of ASC SPECK formation

EC50 [1]	EC50 [2]	Structure (SMILES)
42 nM	–	Cc1cc(C(F)(F)F)cc(O)c1-c1cnc2cn([C@@H]3CCOC[C@@H]3C)nc2n1 (single isomer, unassigned) [Example 85, 3-methyl-2-(2-((3R,4R or 3S,4S)-3-methyltetrahydro-2H-pyran-4-yl)-2H-pyrazolo[3,4-b]pyrazin-6-yl)-5-(trifluoromethyl)phenol]
60 nM	–	Cc1cc(C(F)(F)F)cc(O)c1-c1cnc2cn(C34COCC3C4)nc2n1 (single isomer, unassigned) [Example 84, 2-(2-((1S,5S or 1R,5R)-3-oxabicyclo[3.1.0]hexan-1-yl)-2H-pyrazolo[3,4-b]pyrazin-6-yl)-3-methyl-5-(trifluoromethyl)phenol]
683 nM	–	Cc1cc(C(F)(F)F)cc(O)c1-c1cnc2cn(C3CCOCC3(C)C)nc2n1 (single isomer, unassigned) [Example 97, (R or S)-2-(2-(3,3-dimethyltetrahydro-2H-pyran-4-yl)-2H-pyrazolo[3,4-b]pyrazin-6-yl)-3-methyl-5-(trifluoromethyl)phenol]
40 nM	–	Cc1cc(C(F)(F)F)cc(O)c1-c1cnc2cn(C3CCc4nnn(C)c4C3)nc2n1 (single isomer, unassigned) [Example 68, (R or S)-3-methyl-2-(2-(1-methyl-4,5,6,7-tetrahydro-1H-benzo[d][1,2,3]triazol-6-yl)-2H-pyrazolo[3,4-b]pyrazin-6-yl)-5-(trifluoromethyl)phenol]
326 nM	–	Cc1cc(C(F)(F)F)cc(O)c1-c1cnc2cn([C@@H]3CCOC[C@@H]3C)nc2n1 (single isomer, unassigned) [Example 86, 3-methyl-2-(2-((3S,4S or 3R,4R)-3-methyltetrahydro-2H-pyran-4-yl)-2H-pyrazolo[3,4-b]pyrazin-6-yl)-5-(trifluoromethyl)phenol]
20 nM	–	CCc1nnc2n1CC(n1cc3ncc(-c4c(C)cc(C(F)(F)F)cc4O)nc3n1)CC2 (single isomer, unassigned) [Example 72, (R or S)-2-(2-(3-ethyl-5,6,7,8-tetrahydro-[1,2,4]triazolo[4,3-a]pyridin-6-yl)-2H-pyrazolo[3,4-b]pyrazin-6-yl)-3-methyl-5-(trifluoromethyl)phenol]
–	198 nM	Cc1cc(C(F)(F)F)cc(O)c1-c1cnc2cn(C3(C)CCOC3)nc2n1 (single isomer, unassigned) [Example 78, (S or R)-3-methyl-2-(2-(3-methyltetrahydrofuran-3-yl)-2H-pyrazolo[3,4-b]pyrazin-6-yl)-5-(trifluoromethyl)phenol]
314 nM	–	Cc1cc(C(F)(F)F)cc(O)c1-c1cnc2cn([C@H]3CCOC[C@H]3F)nc2n1 (single isomer, unassigned) [Example 102, 2-(2-((3R,4R or 3S,4S)-3-fluorotetrahydro-2H-pyran-4-yl)-2H-pyrazolo[3,4-b]pyrazin-6-yl)-3-methyl-5-(trifluoromethyl)phenol]
–	191 nM	Cc1cc(C(F)(F)F)cc(O)c1-c1cnc2c(C)n(C3CCC(=O)N(C)C3)nc2n1 (single isomer, unassigned) [Example 106, (S or R)-5-(6-(2-hydroxy-6-methyl-4-(trifluoromethyl)phenyl)-3-methyl-2H-pyrazolo[3,4-b]pyrazin-2-yl)-1-methylpiperidin-2-one]
8 nM	–	Cc1cc(C(F)(F)F)cc(O)c1-c1cnc2cn(CC3CC(=O)N(C(C)C)C3)nc2n1 (single isomer, unassigned) [Example 80, (R or S)-4-((6-(2-hydroxy-6-methyl-4-(trifluoromethyl)phenyl)-2H-pyrazolo[3,4-b]pyrazin-2-yl)methyl)-1-isopropylpyrrolidin-2-one]
11 nM	–	Cc1cc(C(F)(F)F)cc(O)c1-c1cnc2cn(C34COCC3C4)nc2n1 (single isomer, unassigned) [Example 83, 2-(2-((1R,5R or 1S,5S)-3-oxabicyclo[3.1.0]hexan-1-yl)-2H-pyrazolo[3,4-b]pyrazin-6-yl)-3-methyl-5-(trifluoromethyl)phenol]
173 nM	–	Cc1cc(C(F)(F)F)cc(O)c1-c1cnc2cn(C3(C)CCOC3)nc2n1 (single isomer, unassigned) [Example 79, (R or S)-3-methyl-2-(2-(3-methyltetrahydrofuran-3-yl)-2H-pyrazolo[3,4-b]pyrazin-6-yl)-5-(trifluoromethyl)phenol]
262 nM	–	Cc1cc(C(F)(F)F)cc(O)c1-c1cnc2cn(C3(C)CC(F)C3)nc2n1 (single isomer, unassigned) [Example 75, 2-(2-((1S,3S or 1R,3R)-3-fluoro-1-methylcyclobutyl)-2H-pyrazolo[3,4-b]pyrazin-6-yl)-3-methyl-5-(trifluoromethyl)phenol]

The next lines start with the compound.

Structure (SMILES)	EC50 [1]	EC50 [2]
CCN1CC(Cn2cc3ncc(-c4c(C)cc(C(F)(F)F)cc4O)nc3n2)CC1=O (single isomer, unassigned) [Example 67, (S or R)-1-ethyl-4-((6-(2-hydroxy-6-methyl-4-(trifluoromethyl)phenyl)-2H-pyrazolo[3,4-b]pyrazin-2-yl)methyl)pyrrolidin-2-one]	7 nM	–
Cc1cc(C(F)(F)F)cc(O)c1-c1cnc2cn(CC3CC(=O)N(C)C3)nc2n1 (single isomer, unassigned) [Example 59, (S or R)-4-((6-(2-hydroxy-6-methyl-4-(trifluoromethyl)phenyl)-2H-pyrazolo[3,4-b]pyrazin-2-yl)methyl)-1-methylpyrrolidin-2-one]	20 nM	–
Cc1cc(C(F)(F)F)cc(O)c1-c1cnc2cn([C@H]3COC[C@@H]3O)nc2n1 [Example 32, (3R,4S)-4-[6-[2-hydroxy-6-methyl-4-(trifluoromethyl)phenyl]pyrazolo[3,4-b]pyrazin-2-yl]tetrahydrofuran-3-ol]	–	34 nM
Cc1cc(Cl)cc(O)c1-c1cnc2cn([C@@H]3[C@@H]4COC[C@@H]43)nc2n1 [Example 56, 2-(2-((1R,5S,6S)-3-oxabicyclo[3.1.0]hexan-6-yl)-2H-pyrazolo[3,4-b]pyrazin-6-yl)-5-chloro-3-methylphenol]	–	42 nM
COCC12CC(n3cc4ncc(-c5c(C)cc(C(F)(F)F)cc5O)nc4n3)(C1)C2 [Example 37, 2-[2-[3-(methoxymethyl)-1-bicyclo[1.1.1]pentanyl]pyrazolo[3,4-b]pyrazin-6-yl]-3-methyl-5-(trifluoromethyl)phenol]	–	220 nM
Cc1cc(C(F)(F)F)cc(O)c1-c1cnc2cn([C@H]3C[C@@H]3C)nc2n1 [Example 52, 3-methyl-2-[2-[(1S,2S)-2-methylcyclopropyl]pyrazolo[3,4-b]pyrazin-6-yl]-5-(trifluoromethyl)phenol]	–	40 nM
Cc1cc(C(F)(F)F)cc(O)c1-c1cnc2cn(C[C@@H]3CCN(C)C3)nc2n1 [Example 6, (R)-3-methyl-2-(2-((1-methylpyrrolidin-3-yl)methyl)-2H-pyrazolo[3,4-b]pyrazin-6-yl)-5-(trifluoromethyl)phenol]	–	35 nM
Cc1cc(C(F)(F)F)cc(O)c1-c1cnc2cn(C34CCC(C#N)(C3)C4)nc2n1 [Example 47, 4-[6-[2-hydroxy-6-methyl-4-(trifluoromethyl)phenyl]pyrazolo[3,4-b]pyrazin-2-yl]bicyclo[2.1.1]hexane-1-carbonitrile]	–	61 nM
Cc1cc(C(F)(F)F)cc(O)c1-c1cnc2cn(C3(C)CCOCC3)nc2n1 [Example 51, 3-methyl-2-[2-(4-methyltetrahydropyran-4-yl)pyrazolo[3,4-b]pyrazin-6-yl]-5-(trifluoromethyl)phenol]	–	142 nM
Cc1cc(C(F)(F)F)cc(O)c1-c1cnc2cn([C@H]3CCC(=O)N(C)C3)nc2n1 [Example 5, (5S)-5-[6-[2-hydroxy-6-methyl-4-(trifluoromethyl)phenyl]pyrazolo[3,4-b]pyrazin-2-yl]-1-methyl-piperidin-2-one]	–	13 nM
Cc1cc(C(F)(F)F)cc(O)c1-c1cnc2cn([C@H]3CC[C@H](C#N)CC3)nc2n1 [Example 40, (1R,4R)-4-(6-(2-hydroxy-6-methyl-4-(trifluoromethyl)phenyl)-2H-pyrazolo[3,4-b]pyrazin-2-yl)cyclohexane-1-carbonitrile]	–	81 nM
Cc1cc(C(F)(F)F)cc(O)c1-c1cnc2cn([C@H]3CCS(=O)(=O)C3)nc2n1 [Example 31, 2-[2-[(3S)-1,1-dioxothiolan-3-yl]pyrazolo[3,4-b]pyrazin-6-yl]-3-methyl-5-(trifluoromethyl)phenol]	–	265 nM
Cc1cc(C(F)(F)F)cc(O)c1-c1cnc2cn(C34CCC(C3)C4)nc2n1 [Example 42, 2-[2-(1-bicyclo[2.1.1]hexanyl)pyrazolo[3,4-b]pyrazin-6-yl]-3-methyl-5-(trifluoromethyl)phenol]	–	70 nM
Cc1cc(C(F)(F)F)cc(O)c1-c1cnc2cn(CC3CC(=O)N(C4CC4)C3)nc2n1 (single isomer, unassigned) [Example 63, (S or R)-1-cyclopropyl-4-((6-(2-hydroxy-6-methyl-4-(trifluoromethyl)phenyl)-2H-pyrazolo[3,4-b]pyrazin-2-yl)methyl)pyrrolidin-2-one]	12 nM	–
Cc1cc(C(F)(F)F)cc(O)c1-c1cnc2cn([C@H]3CC[C@@H](C#N)CC3)nc2n1 [Example 11, (1S,4S)-4-(6-(2-hydroxy-6-methyl-4-(trifluoromethyl)phenyl)-2H-pyrazolo[3,4-b]pyrazin-2-yl)cyclohexane-1-carbonitrile]	–	1500 nM
CCN1CC(Cn2cc3ncc(-c4c(C)cc(C(F)(F)F)cc4O)nc3n2)CC1=O (single isomer, unassigned) [Example 66, (R or S)-1-ethyl-4-((6-(2-hydroxy-6-methyl-4-(trifluoromethyl)phenyl)-2H-pyrazolo[3,4-b]pyrazin-2-yl)methyl)pyrrolidin-2-one]	359 nM	–
Cc1cc(C(F)(F)F)cc(O)c1-c1cnc2cn(C3CCCOC34CCC4)nc2n1 (racemic) [Example 22, (S and R)-2-(2-(5-oxaspiro[3.5]nonan-9-yl)-2H-pyrazolo[3,4-b]pyrazin-6-yl)-3-methyl-5-(trifluoromethyl)phenol]	–	202 nM
